US6642215B2 (Leo Pharma A/S, priority 2001, dated 2003)
Where two headings read alike, the source gives them in different places.

Key:
NF-κB [1] = assay: NF-κB-dependent luciferase assay in PC-3 cells, TNF-α stimulation; format: cell-based, human; conditions: TNF-α 50 ng/ml, up to 24 h
Procedure: (§1) The NF-κB-luciferase reporter plasmid (pBIIX) and pRL-TK control vector described in Example 1 were used for the luciferase assay,
The PC-3 cells were seeded at a density of 3×10^4 cells/cm^2 in 6 well-plates. The following day, the cells were co-transfected with construct DNA and pRL-TK vector using DOTAP liposomal transfection reagent (Boehringer Mannheim). The construct DNA (4.0 μg per well), the pRL-TK vector (1.0 μg per well), DOTAP (16.7 μl per well) and dH2O (total volume 100 μl per well) were carefully mixed and incubated for 15 min at 37° C. A growth medium without serum (900 μl per well) was added and the transfection mixture (1 ml per well) was added to the cells. After 4 h at 37° C., a growth medium with 20% FBS (1 ml per well) was added. The cells were treated at 37° C. with compound A (10^−12−10^−5 M) or DMSO for 24 h before stimulation with TNF-α (50 ng/ml) for 6 h.
(§2) The cell lysate was assayed for luciferase activity using the Dual luciferase kit as described by the manufacturer (Promega). All transfections were performed in triplicate. Firefly luciferase activity was corrected for differences in transfection efficiency by normalizing it to the measured Renilla luciferase activity.
(§3) NF-κB activity was measured by the luciferase assay described in Example 1.

NF-κB [2] = assay: NF-κB-dependent luciferase assay in HT-1080 cells, TNF-α stimulation; format: cell-based, human; conditions: TNF-α 50 ng/ml, up to 24 h
Procedure: as §1
The HT-1080 cells were seeded at a density of 3×10^4 cells/cm^2 in 6 well-plates. The following day, the cells were co-transfected with construct DNA and pRL-TK vector using FuGene Transfection Reagent. A mixture of 10 μl Fugene and 90 μl serum free medium (per well) was prepared and Incubated for 5 min at room temperature. Then, this mixture was transferred to a mixture of construct DNA (1.25 μg per well) and pRL-TK vector (0.25 μg per well), gently mixed, incubated for 15 min at room temperature and added to the cells. The cells were treated at 37° C. with compound A (10^−12−10^−5 M) or DMSO for 24 h before stimulation with TNF-α (50 ng/ml) for 6 h.
as §2, §3

NF-κB [3] = assay: NF-κB-dependent luciferase assay in Colo-320 cells, TNF-α stimulation; format: cell-based, human; conditions: TNF-α 50 ng/ml, up to 24 h
Procedure: as §1
The Colo-320 cells were seeded with a density of 5×10^4 cells/cm^2 in 6-well plates (NUNC). The following day, the cells were co-transfected with construct DNA and pRL-TK using FuGene Transfection Reagent (Boehringer Mannheim). A mixture of 5 μl Fugene and 95 μl serum free medium (per well) was prepared and incubated for 5 min at room temperature. Then, the mixture was transferred to a mixture of construct DNA (2.5 μg per well) and pRL-TK vector (0.25 μg per well), gently mixed, incubated for 15 min at room temperature and added to the cells. The cells were treated at 37° C. with compound A (10^−12−10^−5 M) or DMSO for 24 h before stimulation with TNF-α (50 ng/ml) for 6 h.
as §2, §3

IKK = target: T1, IKK (Homo sapiens, UniProt O14920); assay: In vitro kinase assay: IKK immunoprecipitated from LPS-stimulated THP-1 cells, GST-IκBα phosphorylation; format: biochemical; conditions: GST-IκB phosphorylated by activated IKK pretreated with the compound
T1 construct: IKK was immunoprecipitated with an IKKα/β antibody; endogenous in cells; host or cells: THP-1 cells stimulated with 1 μg/ml LPS; whole cell extract immunoprecipitated with an IKKα/β antibody (Santa Cruz)
T1 sequence (O14920 whole entry): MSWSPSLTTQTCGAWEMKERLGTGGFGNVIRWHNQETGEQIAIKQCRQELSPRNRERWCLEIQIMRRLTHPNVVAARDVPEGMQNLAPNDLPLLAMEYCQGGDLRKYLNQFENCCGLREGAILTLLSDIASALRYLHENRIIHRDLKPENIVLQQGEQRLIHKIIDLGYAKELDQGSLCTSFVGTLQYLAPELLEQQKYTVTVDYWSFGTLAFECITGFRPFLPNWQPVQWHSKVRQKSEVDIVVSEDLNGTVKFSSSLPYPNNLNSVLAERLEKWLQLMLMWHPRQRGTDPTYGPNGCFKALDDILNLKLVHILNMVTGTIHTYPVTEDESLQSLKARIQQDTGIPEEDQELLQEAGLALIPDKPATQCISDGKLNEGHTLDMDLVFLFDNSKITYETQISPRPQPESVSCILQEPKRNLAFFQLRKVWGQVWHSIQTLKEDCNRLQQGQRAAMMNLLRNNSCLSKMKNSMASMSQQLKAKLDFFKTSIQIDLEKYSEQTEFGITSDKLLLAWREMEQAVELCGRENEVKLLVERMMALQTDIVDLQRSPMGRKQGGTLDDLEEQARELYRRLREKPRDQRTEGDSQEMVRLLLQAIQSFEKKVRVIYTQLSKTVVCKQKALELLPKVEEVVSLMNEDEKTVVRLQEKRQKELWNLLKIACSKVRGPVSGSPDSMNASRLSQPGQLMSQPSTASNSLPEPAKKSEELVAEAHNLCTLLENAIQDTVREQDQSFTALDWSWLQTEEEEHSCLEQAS
T1 sequence (O15111 whole entry partner): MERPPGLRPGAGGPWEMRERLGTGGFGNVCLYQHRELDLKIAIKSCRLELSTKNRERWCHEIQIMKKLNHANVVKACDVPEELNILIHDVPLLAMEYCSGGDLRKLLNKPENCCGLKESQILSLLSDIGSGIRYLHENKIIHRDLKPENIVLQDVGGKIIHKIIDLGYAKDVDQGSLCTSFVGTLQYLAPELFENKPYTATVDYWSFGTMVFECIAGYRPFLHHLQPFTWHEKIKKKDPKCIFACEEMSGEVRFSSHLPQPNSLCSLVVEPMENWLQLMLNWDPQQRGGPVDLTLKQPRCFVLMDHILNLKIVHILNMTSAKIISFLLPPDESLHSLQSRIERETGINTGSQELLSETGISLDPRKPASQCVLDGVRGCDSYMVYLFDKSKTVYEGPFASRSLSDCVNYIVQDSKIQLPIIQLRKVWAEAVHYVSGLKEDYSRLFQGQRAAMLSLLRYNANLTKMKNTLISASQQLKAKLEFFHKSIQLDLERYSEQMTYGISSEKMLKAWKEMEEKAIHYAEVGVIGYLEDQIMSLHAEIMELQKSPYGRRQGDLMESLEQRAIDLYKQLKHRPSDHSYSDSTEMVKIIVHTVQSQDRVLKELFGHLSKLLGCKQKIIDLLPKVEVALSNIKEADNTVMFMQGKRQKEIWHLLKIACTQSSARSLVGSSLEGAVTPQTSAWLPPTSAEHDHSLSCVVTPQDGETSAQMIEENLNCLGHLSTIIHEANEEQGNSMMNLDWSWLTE
T1 sequence (Q9Y6K9 whole entry partner): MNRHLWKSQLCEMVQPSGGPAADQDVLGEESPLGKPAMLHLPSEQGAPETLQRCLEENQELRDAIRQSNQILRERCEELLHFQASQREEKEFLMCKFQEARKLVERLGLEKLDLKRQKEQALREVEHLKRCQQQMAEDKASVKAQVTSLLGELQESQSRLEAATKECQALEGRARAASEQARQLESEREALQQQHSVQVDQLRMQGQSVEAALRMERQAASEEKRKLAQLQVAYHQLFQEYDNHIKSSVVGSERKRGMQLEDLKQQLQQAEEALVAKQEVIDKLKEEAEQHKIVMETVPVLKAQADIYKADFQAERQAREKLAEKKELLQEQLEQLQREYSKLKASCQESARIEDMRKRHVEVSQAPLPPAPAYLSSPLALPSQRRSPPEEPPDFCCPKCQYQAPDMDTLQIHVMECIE
Procedure: In vitro kinase assay: THP-1 cells (1×10^7 cells) were stimulated with 1 μg/ml LPS for the indicated time periods and whole cell extracts were prepared as described above. IKK was immunoprecipitated with an IKKα/β antibody (raised against amino acid 470-755 of IKKβ of human origin but partially cross-reactive with IKKα as detected by Western Blotting (Santa Cruz Biotechnology Inc.). Compound A was diluted in kinase buffer (25 mM HEPES pH 7.5, 10 mM magnesium acetate, 50 μM ATP) at the appropriate concentrations. The compound was added to the beads for 30 min. at 30° C. The kinase reaction was started by adding 2.5 μg of the GST-IκBα substrate (Santa Cruz Biotechnology Inc.) together with 2 μCi γ-^32P-ATP (Amersham Pharmacia Biotech) per sample. The reaction was allowed to proceed for 30 min. at 30° C., and the IKK activity was measured by the amount of radioactive-labelled GST-IκBα bands, quantified by the STORM860 Phospho-Imager.
A general problem with the kinase assay is prestimulation of the kinase. To achieve a value for the zero-point, the LPS-activated IKK mixture was incubated with 20 μM myricetin (Sigma-Aldrich), which is a known IKKβ inhibitor (S. H. Tsal et al., J. Cell Biochem. 74, 1999, pp. 606-615). This value was subtracted from the all other values. All data are expressed as percentage of the activity of the LPS-activated IKKβ kinase treated with 0.1% DMSO.

NYH SCLC cells = assay: DNA synthesis (tritiated thymidine incorporation) in NYH SCLC cells; format: cell-based; conditions: incorporation of tritiated thymidine in NYH SCLC cells; read-out: NYH proliferation in vitro (IC50 nM)
Procedure: DNA synthesis: NYH SCLC, HT-1080, Colo-320, PC-3 and H460 cells (7.5×10^3 cells/ml) were seeded in tissue culture vessels and the test compound were added 2 h after plating. Following an incubation for 144 h tritiated thymidine (5 CI/mmol, Amersham Pharmacia Biotech) was added to the culture at the concentration of 1 μCi/ml, and the cells were incubated for additional 4 h. The incorporated thymidine was measured with a β-counter. Each compound concentration was tested in triplicate.

NYH Xenografts = assay: NYH xenografts in nude mice, tumour growth; format: in vivo, NMRI nu/nu mice; conditions: nude mice with NYH SCLC tumours, 14 days of treatment with 20 mg/kg
Procedure: All of the animal experiments were conducted according to the guidelines and ethical standards of the Danish Committee for Animal Experiments. Female NMRI nu/nu mice 6 weeks of age were purchased from M&B (Ry, Denmark). The mice were allowed an acclimatisation period of 1-3 weeks before start of the experiments. The nude mice were housed in Scantainers under semi-sterile conditions and all handling of mice was performed in a laminar flow bench.
NYH Xenografts. NMRI nu/nu mice were injected with 1×10^7 cells in 0.2 ml media s.c. in both flanks and tumour growth was measured twice weekly. The tumour area was used as expression of the tumour size and was calculated from two perpendicular diameters measured with a digital caliper. Compound A was given for fourteen consecutive days by oral gavage from day 4-6 when the tumour size was 24-30 mm^2. Each treatment group consisted of 10 mice.
Statistical Methods In the animal models, tumour sizes were expressed by the mean of the trends in each treatment group. The trend is the linear increment or tumour size, where tumour size is the square root of the (mean) area of the tumour(s). Comparison with controls was expressed as T/C % and calculated as follows:
A=(overall mean tumour size at baseline+mean trend of treatment*intended days of treatment)
B=(overall mean tumour size at baseline+mean trend of control*intended days of treatment)
Overall mean tumour size at baseline=pooling all treatments this is the mean of all baseline values. For each mouse the baseline value is calculated as the square root of the (mean) area of the tumour(s).
Significance was tested with the Bonferroni correction. This correction is a method for adjusting (lowering) the significance level so the overall finding of one significant difference due to chance is around 5 percent.

| IC50 (IKK; read-out: IKK activity in vitro (IC50 nM)) | IC50 (IKK; cell prints (M), head nM, read-out: IKK activity in vitro (IC50)) | Compound | effect on the NF-κB activity (NF-κB [1]) | NF-κB activity increase compared to the control (NF-κB [2]) | NF-κB activity increase compared to the control (NF-κB [3]) | IC50 (NYH SCLC cells) | NYH tumor growth in vivo (T/C in %) (NYH Xenografts) |
| --- | --- | --- | --- | --- | --- | --- | --- |
|  |  | TNF-α | only a small effect | approximately 12 fold | ~46 fold |  |  |
| 22 ± 2.4 nM |  | COc1ccc(NC(=NC#N)NCCCCCCOc2ccc(Cl)cc2)cn1 [compound C] |  |  |  | 567 ± 127 nM |  |
|  | > 10000 nM | CCOC(=O)c1cccc(NC(=NC#N)NCCCCCCOc2ccc(Cl)cc2)c1 [compound E] |  |  |  | 597 ± 42 nM | −17.1% |
